Measurements as given in patent US8802138B2, “Methods and compositions for improved deliver, expression or activity of RNA interference agents” (priority 2009, dated 2014).
“Also recorded” adds a separate entry of the source.

What was measured:
[1] = test system: Hs766T, MCF7 and PC3 cells; test: siGLO release after pretreatment with enabler agent, confocal fluorescence microscopy; assay type: cell-based, human; details: agent 4 hours, then liposomal siGLO (DC-RNAi) 6 hours
Method: (§1) The effectiveness of RIDES in enhancing the intracellular bioavailability of RNAi (i.e., promoting the delivery of RNAi to the cytosol and the release of RNAi from liposomes, endosomes or lysosomes) was studied by monitoring the intracellular trafficking and locations of lipid vectors and RNAi using confocal fluorescence microscopy. […] For monitoring the location of liposomes, rodamine-labeled lipids (red fluorescence) was added to the liposome during liposome preparation. Internalization of siGLO-containing liposomes into the cytosol of a cell yields punctuated red and green fluorescence signals.
Three studies were conducted using siGLO as the RNAi. The lipid vector was the DC liposomes. The study was performed in one or more of three human tumor cell lines, i.e., pancreatic Hs766T, breast cancer MCF7, and prostate cancer PC3.
The first study evaluated the effects of pretreatment with enabler agents. […] Additional cytotoxic agents not acting through tubulin interaction or topoisomerase inhibition, i.e., cisplatin and 5-fluorouracil, were included as side-by-side comparisons. Cells were treated with one of these agents for 4 hours, followed by incubation with liposomal siGLO for 6 hours. […] After pretreatment with enabler agent, cells were washed with cold FBS-free medium for 3 times, fixed with formalin, stained with the nucleus dye DRAQ5, and examined using confocal fluorescence microscopy. […] Because only the free siGLO (not embedded in liposomes) can enter the nucleus, the nuclear accumulation of siGLO indicates the release of RNAi from the liposomes, endosomes, or lysosomes.

[2] = test system: prostate cancer PC3 cells; test: siGLO release with concurrent enabler treatment, confocal microscopy; assay type: cell-based, human; details: agent concurrent with the siGLO treatment
Method: as §1
The study was performed in prostate cancer PC3 cells.

HS766T cells [3] = test: Cytotoxicity of 4 hour paclitaxel treatment, MTT assay; assay type: cell-based, human; details: 10 nM for 4 hours
Method: (§2) In vivo antitumor activity was measured in tumor-bearing animals. In vitro antitumor activity was measured in cultured cells using the microtetrazolium assay (MTT). This assay measures the ability of cells to reduce the MTT dye, and is generally used as a measurement of the total cell number.

HS766T cells [4] = test: Concentration-dependence of paclitaxel effect on siGLO transfection; assay type: cell-based, human; details: 10 and 50 nM for 4 hours
Method: as §1

[5] = test system: porcine arterial smooth muscle cells; test: Paclitaxel cytotoxicity, MTT assay, normal cells; assay type: cell-based
Method: as §2
(§3) This was evaluated in porcine arterial smooth muscle cells; the duration of drug treatment was 36 hours. […] Cytotoxicity was measured using the using the MTT assay.

pancreatic HS766T = test: Paclitaxel cytotoxicity, MTT assay; assay type: cell-based, human
Method: as §2, §3

breast MCF7 cells = test: Paclitaxel cytotoxicity, MTT assay; assay type: cell-based, human
prostate PC3 = test: Paclitaxel cytotoxicity, MTT assay; assay type: cell-based; details: Homo sapiens, read-out: 50% inhibition of IC50 (nM); PC3, 48 hours
[6] = concentration time product producing 50% cytotoxicity

SMILES | nuclear accumulation of siGLO (release of RNAi from liposomes, endosomes or lysosomes) [1] | nuclear accumulation of siGLO [2] | also measured
CC[C@]1(O)C[C@H]2CN(CCc3c([nH]c4ccccc34)[C@@](C(=O)OC)(c3cc4c(cc3OC)N(C=O)[C@H]3[C@@](O)(C(=O)OC)[C@H](OC(C)=O)[C@]5(CC)C=CCN6CC[C@]43[C@@H]65)C2)C1 [vincristine] | induced nuclear accumulation of green fluorescence signals |  | 
O=c1[nH]cc(F)c(=O)[nH]1 [5-fluorouracil] | did not change the punctated pattern of siGLO localization; also recorded: ineffective |  | 
COc1cccc2c1C(=O)c1c(O)c3c(c(O)c1C2=O)C[C@@](O)(C(=O)CO)C[C@@H]3O[C@H]1C[C@H](N)[C@H](O)[C@H](C)O1 [doxorubicin] | induced nuclear accumulation of green fluorescence signals |  | 
COC(=O)Nc1nc2ccc(C(=O)c3cccs3)cc2[nH]1 [nocodazole] | induced nuclear accumulation of green fluorescence signals | extensive nuclear accumulation of siGLO | 
N.N.[Cl][Pt][Cl] [cisplatin] | did not change the punctated pattern of siGLO localization; also recorded: ineffective | ineffective | 
COc1cc2c(c(OC)c1OC)-c1ccc(OC)c(=O)cc1[C@@H](NC(C)=O)CC2 [colchicine] | induced nuclear accumulation of green fluorescence signals |  | 
CC(=O)O[C@@]12CO[C@@H]1C[C@H](O)[C@@]1(C)C(=O)[C@H](O)C3=C(C)[C@@H](OC(=O)[C@H](O)[C@@H](NC(=O)OC(C)(C)C)c4ccccc4)C[C@@](O)([C@@H](OC(=O)c4ccccc4)[C@H]21)C3(C)C [docetaxel] | induced nuclear accumulation of green fluorescence signals |  | 
CC(=O)O[C@H]1C(=O)[C@@]2(C)[C@H]([C@H](OC(=O)c3ccccc3)[C@]3(O)C[C@H](OC(=O)[C@H](O)[C@@H](NC(=O)c4ccccc4)c4ccccc4)C(C)=C1C3(C)C)[C@]1(OC(C)=O)CO[C@@H]1C[C@@H]2O [paclitaxel] | induced nuclear accumulation of green fluorescence signals | extensive nuclear accumulation of siGLO | cytotoxicity (HS766T cells [3]): no apparent toxicity; appearance of siGLO in the nucleus (HS766T cells [4]): enhanced the appearance of siGLO in the nucleus at both concentrations; also recorded: effective; IC50 ([5]; Sus scrofa, read-out: 50% inhibition of IC50 (nM), 36 hours): 113 nM; CxT (nMxhr) [5, 6]: 4068 nMxhr; IC50 (pancreatic HS766T; Homo sapiens, read-out: 50% inhibition of IC50 (nM), 48 hours): 12.7 nM; CxT (nMxhr) (pancreatic HS766T; [6]): 610 nMxhr; IC50 (breast MCF7 cells; Homo sapiens, read-out: 50% inhibition of IC50 (nM), MCF7, 48 hours): 5.2 nM; CxT (nMxhr) (breast MCF7 cells; concentration time product producing 50% cytotoxicity, MCF7): 250 nMxhr; IC50 (prostate PC3): 15.5 nM
